Reference: PMC5566978, “Human Leukocyte Antigen (HLA)-DRB1*15:01 and HLA-DRB5*01:01 Present Complementary Peptide Repertoires” (Frontiers in Immunology, 2017)
Where no end group is shown, it is not given here.

Legend:
[1] = molecular target: recombinant DR2b (DRA1*01:01/DRB1*15:01) (Homo sapiens, UniProt P01903+P01911); experiment: Competition peptide-binding assay to recombinant DR2b; details: competition with 1 µM biotinylated modified GAD555-567 peptide, wells coated with HLA-DR2b, europium-streptavidin time resolved fluorescence
Experimental: (§1) The experimental affinity of different peptides to HLA-DR molecules was determined as previously described ([31]). Briefly, recombinant DR2b (DRA1*01:01/DRB1*15:01) and DR2a (DRA1*01:01/DRB5*01:01) proteins were used for peptide-binding assays. Increasing concentrations of each non-biotinylated test peptide were incubated in competition with 1 µM of the biotinylated GAD555-567 peptide ([…], modified from […] to bind to DRB1*15:01 and DRB5*01:01 in a single unambiguous register) in wells coated with HLA-DR2a or HLA-DR2b. After washing, residual biotinylated reference peptide was labeled using europium conjugated streptavidin (Perkin Elmer) and quantified using a Victor3 D time resolved fluorometer (Perkin Elmer). Peptide-binding curves were simulated by non-linear regression with Prism Software (version 4.03, GraphPad Software Inc.) using a sigmoidal dose–response curve. IC50 binding values were calculated from the resulting curves as the peptide concentration needed for 50% inhibition of reference peptide binding. Equivalent amounts of purified HLA-DR protein were plated on each plate, but similar amounts of total protein can have different levels of activity. Thus, different preparations of protein frequently give different levels of maximum counts (presumably based on differences in purity and the proportion of the protein that is functional). Indeed differences between different preparations of the same HLA-DR protein can be observed.
(§2) Figure 4 Experimental binding affinity of peptides sequenced from MGAR and (A) Binding to DR2a or (B) Binding to DR2b. Increased concentration of the peptides were incubated in wells coated with recombinant human leukocyte antigen (HLA)-DR2a or HLA-DR2b in competition with 1 µM biotinylated modified GAD555-567 peptide ([…], modified from […] to bind to DRB1*15:01 and DRB5*01:01 in a single unambiguous register) to generate binding curves. After washing, residual biotinylated reference peptide was labeled using europium-conjugated streptavidin and quantified. The Y-axis depicts raw europium counts, which is proportional to the amount of residual biotinylated peptide that remains bound to HLA class II. White-filled symbols represent peptides eluted from DR2a. Black-filled symbols represent peptides eluted from DR2b.

[2] = molecular target: recombinant DR2a (DRA1*01:01/DRB5*01:01) (Homo sapiens, UniProt P01903+Q30154); experiment: Competition peptide-binding assay to recombinant DR2a; details: competition with 1 µM biotinylated modified GAD555-567 peptide, wells coated with HLA-DR2a, europium-streptavidin time resolved fluorescence
Experimental: as §1, §2

IC50 [1] | IC50 [2] | BINDING IC50 DR2a [2] | Sequence
> 50 µM | > 50 µM |  | QKKEIHLYQTFVVQL
> 50 µM | > 50 µM |  | LEEFGRFASFEAQG
 | > 50 µM | non-detectable affinity | LPSEKAIFLFVDKTVPQS
> 50 µM | > 50 µM |  | QKKEIHLYQTFVVQLQDPR
> 50 µM |  |  | QTKEFQVLKSLGKLAMG
> 50 µM | > 50 µM |  | QKKEIHLYQTFVVQLQDPREP
> 50 µM | 5.8 µM |  | SQAEFEKAAEEVRHL
> 50 µM | > 50 µM |  | QKKEIHLYQTFVVQ
> 50 µM |  |  | ELEELRAEQQRLKSQDL
> 50 µM | > 50 µM |  | LEEFGRFASFEAQGA
